Test system: neurons of the locus coeruleus (LC); mu opioid receptor-coupled K^+ channels
Format: cell-based, rat

Molecule	effect on residual Ba^2+-insensitive outward current	effect on responses to uncaging stimuli
Nc1ccncc1 [4-AP]	unable to block or occlude	–
CC1(C)[C@@H](OC(=O)CCC(=O)O)CC[C@]2(C)[C@H]3C(=O)C=C4[C@@H]5C[C@@](C)(C(=O)O)CC[C@]5(C)CC[C@@]4(C)[C@]3(C)CC[C@@H]12 [carbenoxolone]	–	not significantly attenuated
ZD7288	unable to block or occlude	–

Reference: paper PMC3282187 (Neuron, 2012)
